In publication PMC8148049, “Fluorogenic Trp(redBODIPY) cyclopeptide targeting keratin 1 for imaging of aggressive carcinomas” (Chemical Science, 2019):
Several values for one entry are separate records, joined by “and”; a condition that tells them apart may be missing. Equal entries are not always repeated. *1 amine or outer side, *2 acyl side, *3 side chain or, on linkers, in order; H or OH if unused. Where a SMILES comes first, the peptide text is derived from it. [ ]: non-standard residue; d: D form. X1 = CC1=CC(C)=[N+]2C1=C(c1cccc(-c3[nH]c4ccccc4c3C[C@H](N[*:1])C(=O)[*:2])c1)c1ccc(-c3ccc(C)s3)n1[B-]2(F)F; Nle = CCCC[C@H](N)C(=O)O

Tests used:
[1] = tested on: Protease XIV (from Streptomyces Griseus); experiment: Protease stability assay (protease cocktail, HPLC-MS monitoring); type: in vitro ADME; conditions: Protease XIV 5 μg mL-1 in PBS-citrate buffer pH 7.1, 37 °C, peptide 500 µM (from 5 mM DMSO stock), HPLC-MS with detection at 280 nm
Description: Given that proteases are abundant enzymes at tumour sites, we also investigated the potential degradation of the cyclopeptides 2 (unlabelled) and 8 [Trp(redBODIPY)-labelled] when subjected to strong proteolytic environments. We incubated both peptides with a commercially available protease cocktail at 37 °C and recorded their chemical stability by HPLC-MS over time. […] We also observed that the incorporation of the amino acid Trp(redBODIPY) into the structure of the cyclopeptide 2 slightly augmented its resistance to proteases, likely due to the inherent properties of unnatural amino acids.
5. Experimental Protocols for Biological Assays […]
(§1) Protease stability assays
(§2) The chemical stability of the peptides was assessed in the presence of Protease XIV (from Streptomyces Griseus) in PBS-citrate buffer (pH 7.1) at 37 °C. First, a stock of 5 μg mL-1 of the protease cocktail in the buffer was prepared. Initially, a concentrated 1 mg mL−1 solution was obtained by weighing 1.1 mg of the protease and dissolving it in 1.1 mL of buffer, and afterwards diluting it down to the desired 5 μg mL-1 stock. Then, 5 µL of the peptides (5 mM in DMSO) were diluted with 45 µL of the protease cocktail to obtain a final peptide concentration of 500 µM. Peptides were vortexed, covered in aluminium foil and shaken at 37°C for 2 h or 24 h. Aliquots (25 µL) were taken, proteins were precipitated by microcentrifugation at 4°C, and supernatants were collected for HPLC-MS with detection at 280 nm. […]

HeLa cells = experiment: Cell viability assay (TACS MTT Cell Proliferation assay); type: cell-based; conditions: different concentrations of peptide, 2 h at 37 °C, vs untreated control, means ± s.d. (n = 4), p > 0.05
Description: 5. Experimental Protocols for Biological Assays
Spectroscopic characterisation
Spectral properties were measured in a BioTek Cytation 3 spectrophotometer. Absorbance and emission spectra were determined in the range of 400–700 nm (every 1 nm) at the indicated concentrations. Environmental sensitivity was measured by comparing the emission in PBS or in presence of phosphatidylcholine: cholesterol (7:1) liposomes (3.75 mg mL-1 PC).
Fluorescence emission was determined on a 384-well plate using a BioTek Cytation 3 spectrophotometer as indicated (excitation at 520 nm, 530-700 nm emission range, every 1 […]
as §1
as §2, with “h.” for “h. Aliquots (25 µL) were taken, proteins were precipitated by microcentrifugation at 4°C, and supernatants were collected for HPLC-MS with detection at 280 nm.”
Cell viability of HeLa cells was determined using the TACS® MTT Cell Proliferation assay (Trevigen). […]

## CCCC[C@@H]1NC(=O)[C@H](Cc2c[nH]c3ccccc23)NC(=O)[C@H](CC(C)C)NC(=O)[C@H](Cc2ccccc2)NC(=O)[C@@H](CCCCN)NC(=O)[C@H](CCC(N)=O)NC(=O)[C@H](Cc2ccc(O)cc2)NC(=O)[C@H](C)NC(=O)[C@H](C)NC(=O)[C@H](CCC(=O)O)NC1=O [compound 2, reference compound] (cyclo(AAYQ[dK]FLW[Nle]E))
[1]
  chemical stability 2 h: 65%
  chemical stability 24 h: 50%

## CCCC[C@@H]1NC(=O)[C@H](Cc2c(-c3cccc(C4=C5C(C)=CC(C)=[N+]5[B-](F)(F)n5c4ccc5-c4ccc(C)s4)c3)[nH]c3ccccc23)NC(=O)[C@H](CC(C)C)NC(=O)[C@H](Cc2ccccc2)NC(=O)[C@@H](CCCCN)NC(=O)[C@H](CCC(N)=O)NC(=O)[C@H](Cc2ccc(O)cc2)NC(=O)[C@H](C)NC(=O)[C@H](C)NC(=O)[C@H](CCC(=O)O)NC1=O [compound 8] (cyclo(AAYQ[dK]FL[X1][Nle]E))
HeLa cells
  Viability of HeLa cells: Non-significant differences
other
  fluorescence increase in hydrophobic medium (fluorogenic): < 70 fold and 70 fold
[1]
  chemical stability 2 h: > 95%
  chemical stability 24 h: 82%
